In patent US6376518B1, “Acyl derivatives of 4-demethylpenclomedine, use thereof and preparation thereof” (Southern Research Institute, priority 1999, dated 2002):
Read-outs that look alike come from different tables or passages of the source.

Tests used:
[1] = system: human MX-1 mammary tumor; assay: In vivo antitumor activity vs s.c.-implanted human MX-1 mammary tumor xenograft in athymic mice; settings: sc MX-1, Days 12-16
[2] = system: human MX-1 mammary tumor; assay: In vivo antitumor activity vs i.c.-implanted human MX-1 mammary tumor xenograft in athymic mice; settings: ic MX-1; for Tumor-Free-Surv/Total / Median % ILS (dying mice only): Days 1-5
[3] = system: P388/CPA leukemia; assay: Antitumor activity against IP-implanted P388/CPA leukemia in mice; format: in vivo, murine; settings: P388/CPA, Q1D × 5 (1)
[4] = system: P388/BCNU leukemia; assay: Antitumor activity against IP-implanted P388/BCNU leukemia in mice; settings: P388/BCNU, Q1D × 5 (1); for MEDIAN DAY OF DEATH: dying mice only
[5] = system: P388/L-PAM leukemia; settings: for MEDIAN DAY OF DEATH: dying mice only
[6] = system: P388/0 leukemia; settings: P388/0; for MEDIAN DAY OF DEATH: dying mice only
[7] = optimal doses (LD10 or less), schedule QD1-5, administered LP.
[8] = P388/L-PAM, IP 60.0 mg/kg/dose, Q1D × 5 (1)
[9] = P388/L-PAM, IP 90.0 mg/kg/dose, Q1D × 5 (1)
[10] = P388/L-PAM, IP 135.0 mg/kg/dose, Q1D × 5 (1)
[11] = IP 60.0 mg/kg/dose, Q1D × 5 (1)
[12] = IP 90.0 mg/kg/dose, Q1D × 5 (1)
[13] = IP 135.0 mg/kg/dose, Q1D × 5 (1)
[14] = P388/L-PAM, IP 15.0 mg/kg/dose, Q1D × 1 (1)
[15] = P388/L-PAM, IP 20.0 mg/kg/dose, Q1D × 1 (1)
[16] = IP 20.0 mg/kg/dose, Q1D × 1 (1)

## COc1nc(C(Cl)(Cl)Cl)c(Cl)c(OC(=O)c2ccco2)c1Cl [DM-F-PEN]
[1]; IP 90 mg/kg/dose
  Tumor-Free-Surv/Total: 5/5
[2]
  activity against i.c.-implanted tumor in comparison to PEN and DM-PEN (in words): significant activity
[2]; IP 135 mg/kg/dose
  Tumor-Free-Surv/Total: 2/5
[2]; [7]
  Survivors: 2/5

## COc1nc(C(Cl)(Cl)Cl)c(Cl)c(OC(=O)CI)c1Cl [DM-IA-PEN]
[1]; IP 60 mg/kg/dose
  Dose (mg/kg) with observed lethality level: 60 (LD40)
  Tumor-Free-Surv/Total: 1/5

## COc1nc(C(Cl)(Cl)Cl)c(Cl)c(OC(=O)c2ccncc2)c1Cl [DM-IN-PEN]
[1]; IP 90 mg/kg/dose
  Dose (mg/kg) with observed lethality level: 90 (LD20)
  Tumor-Free-Surv/Total: 3/5

## COCC(=O)Oc1c(Cl)c(OC)nc(C(Cl)(Cl)Cl)c1Cl [DM-MA-PEN]
[1]; oral (gavage) 135 mg/kg/dose
  T-C: >41.0 days
  Tumor-Free-Surv/Total: 5/5
[2]
  activity against i.c.-implanted tumor in comparison to PEN and DM-PEN (in words): significant activity
[2]; IP 90 mg/kg/dose
  Tumor-Free-Surv/Total: 1/5
[2]; [7]
  Survivors: 1/5
[2]; oral (gavage) 90 mg/kg/dose
  Median % ILS (dying mice only): +110%
  Tumor-Free-Surv/Total: 1/5

## COc1nc(C(Cl)(Cl)Cl)c(Cl)c(OC(=O)c2ccc([N+](=O)[O-])cc2)c1Cl [DM-NB-PEN]
[1]; IP 135 mg/kg/dose
  Tumor-Free-Surv/Total: 5/5

## COc1nc(C(Cl)(Cl)Cl)c(Cl)c(OC(=O)c2ccc([N+](=O)[O-])o2)c1Cl [DM-NF-PEN]
[1]; IP 90 mg/kg/dose
  Tumor-Free-Surv/Total: 4/5
[2]; IP 135 mg/kg/dose
  Median % ILS (dying mice only): +59%

## CCCCCCCC(=O)Oc1c(Cl)c(OC)nc(C(Cl)(Cl)Cl)c1Cl [DM-O-PEN]
[2]
  activity against i.c.-implanted tumor in comparison to PEN and DM-PEN (in words): significant activity
[2]; IP 90 mg/kg/dose
  Tumor-Free-Surv/Total: 0/5
[2]; [7]
  Survivors: 0/5

## COc1nc(C(Cl)(Cl)Cl)c(Cl)c(O)c1Cl [DM-PEN, 3,5-dichloro-2-methoxy-4-hydroxy-6-(trichloromethyl)pyridine]
[3]; IP 60.0 mg/kg/dose
  50-DAY SURV/TOTAL: 0/6
  % ILS: +22%
  APPROX. NET LOG10 CHANGE IN TUMOR BURDEN AT END OF Rx: +0.9
[3]; IP 90.0 mg/kg/dose
  50-DAY SURV/TOTAL: 0/6
  % ILS: +54%
  APPROX. NET LOG10 CHANGE IN TUMOR BURDEN AT END OF Rx: −1.1
[3]; IP 90.0 mg/kg/dose, dying mice only
  MEDIAN DAY OF DEATH: 17.0
[3]; IP 135.0 mg/kg/dose
  50-DAY SURV/TOTAL: 0/6
  % ILS: +31%
  APPROX. NET LOG10 CHANGE IN TUMOR BURDEN AT END OF Rx: +0.3
[4]; IP 60.0 mg/kg/dose
  50-DAY SURV/TOTAL: 0/6
  % ILS: +33%
  APPROX. NET LOG10 CHANGE IN TUMOR BURDEN AT END OF Rx: +0.8
  MEDIAN DAY OF DEATH: 12.0
[4]; IP 90.0 mg/kg/dose
  50-DAY SURV/TOTAL: 0/6
  % ILS: +55%
  APPROX. NET LOG10 CHANGE IN TUMOR BURDEN AT END OF Rx: −0.8
  MEDIAN DAY OF DEATH: 14.0
[4]; IP 135.0 mg/kg/dose
  50-DAY SURV/TOTAL: 0/6
  % ILS: +88%
  APPROX. NET LOG10 CHANGE IN TUMOR BURDEN AT END OF Rx: −3.1
  Toxicity / lethality level at the dosage (LD): LD17
  MEDIAN DAY OF DEATH: 17.0
[2]; [7]
  Median % ILS (based on dying mice only): 60%
  Survivors: 0/5
[5]; [8]
  50-DAY SURV/TOTAL: 0/6
  % ILS: −4%
  APPROX. NET LOG10 CHANGE IN TUMOR BURDEN AT END OF Rx: +1.6
[5]; [9]
  50-DAY SURV/TOTAL: 0/6
  % ILS: −8%
  APPROX. NET LOG10 CHANGE IN TUMOR BURDEN AT END OF Rx: +1.6
  MEDIAN DAY OF DEATH: 13.0
[5]; [10]
  50-DAY SURV/TOTAL: 0/6
  % ILS: −4%
  APPROX. NET LOG10 CHANGE IN TUMOR BURDEN AT END OF Rx: +1.6
  Toxicity / lethality level at the dosage (LD): LD33
[5]; mouse, in vivo
  activity in the P388/L-PAM tumor model (in words): none of the three showed significant activity
[6]; [11]
  50-DAY SURV/TOTAL: 0/6
  % ILS: +45%
  APPROX. NET LOG10 CHANGE IN TUMOR BURDEN AT END OF Rx: −0.8
  MEDIAN DAY OF DEATH: 16.0
[6]; [12]
  50-DAY SURV/TOTAL: 0/6
  % ILS: +72%
  APPROX. NET LOG10 CHANGE IN TUMOR BURDEN AT END OF Rx: −3.1
  MEDIAN DAY OF DEATH: 19.0
[6]; [13]
  50-DAY SURV/TOTAL: 0/6
  % ILS: −23%
  Toxicity / lethality level at the dosage (LD): TOXIC
  MEDIAN DAY OF DEATH: 8.5

## COc1nc(C(Cl)(Cl)Cl)c(Cl)c(OC(=O)c2c(Cl)cc(Cl)cc2Cl)c1Cl [DM-TCB-PEN]
[2]; IP 135 mg/kg/dose
  Median % ILS (dying mice only): +92%
  Tumor-Free-Surv/Total: 1/5

## N[C@@H](Cc1ccc(N(CCCl)CCCl)cc1)C(=O)O [L-PAM (melphalan), melphalan]
[5]; [14]
  50-DAY SURV/TOTAL: 0/6
  % ILS: +14%
  APPROX. NET LOG10 CHANGE IN TUMOR BURDEN AT END OF Rx: −1.8
  MEDIAN DAY OF DEATH: 18.0
[5]; [15]
  50-DAY SURV/TOTAL: 0/6
  % ILS: +14%
  APPROX. NET LOG10 CHANGE IN TUMOR BURDEN AT END OF Rx: −1.8
  MEDIAN DAY OF DEATH: 18.0
[6]; IP 15.0 mg/kg/dose, Q1D × 1 (1)
  50-DAY SURV/TOTAL: 6/6
[6]; [16]
  50-DAY SURV/TOTAL: 6/6
  % ILS: +209%
  APPROX. NET LOG10 CHANGE IN TUMOR BURDEN AT END OF Rx: ca −8.8
  MEDIAN DAY OF DEATH: 34.0
